System: NF-κB DNA binding activity
Assay: EMSA of NF-κB DNA binding activity in C2C12 myoblasts
Assay type: cell-based, mouse
Details: 200 μM, 1 h, serum-free media; TNF-α 10 ng/ml 15 min
Protocol: To confirm that the NBD mimetics reduce IKK kinase activity, phosphorylation of IκBα by IKK in response to 10 ng/ml of TNF-α was measured by western blot at 0, 5, and 10 min after stimulation. […] To determine whether the mimetics also reduce NF-κB DNA binding activity, electrophoretic mobility shift assay (EMSA) was conducted both in vitro and in vivo. […] The addition of acetonitrile increased the stability of both ZINC compounds, especially ZINC 5 (Fig 3D).
Fig 3 Two identified small molecules reduce NF-κB DNA binding activity in vivo and in vitro. (A) Levels of p-IκBα with or without treatment in response to TNF-α were determined by western blot analysis. HEK293 cells were pretreated with DMSO, ZINC12909780 (100 μM), and ZINC5 (100 μM) for 30 min followed by the stimulation of 10 ng/ml of TNF-α for 0, 5, and 10 min. Cell lysates were prepared for immunoblot against p-IκBα. GAPDH was used as a loading control. (B) EMSA analysis detecting NF-κB DNA binding activity was performed in C2C12 myoblasts. Cells were pretreated with 200 μM of DMSO, ZINC12909780, and ZINC5 in serum-free media for 1 h. TNF-α was then added to a final concentration of 10 ng/ml and incubated for 15 min. Nuclear extract was obtained for EMSA analysis. (C) EMSA analysis assessing NF-κB DNA binding activity in vivo was performed with quadriceps from mdx mice. […]

Row | Structure (SMILES) | TNF-α-induced NF-κB DNA binding activity (EMSA)
1 | O=C(COC(=O)Cc1ccccc1F)Nc1ccc(Cl)cn1 [ZINC5] | inhibit TNF-α-induced NF-κB DNA binding activity
2 | Nc1ncccc1C(=O)OCC(=O)Nc1ccc(Cl)cc1F [ZINC12909780] | inhibit TNF-α-induced NF-κB DNA binding activity

Reference: paper PMC6013238, “Development of novel NEMO-binding domain mimetics for inhibiting IKK/NF-κB activation” (PLoS Biology, 2018)
